The record followed here is publication PMC8653662, “Cytotoxicity and Immunogenicity Evaluation of Synthetic Cell-penetrating Peptides for Methotrexate Delivery” (Iranian Journal of Pharmaceutical Research : IJPR, 2021).

Ends that are not written are not given here. MTX = methotrexate

One data set relates to TNF-α. It counts as cell-based, Human. Particulars: Raji cells; LPS 10 μg/mL; 48 h; positive control. The protocol:
(§1) As a positive control, cells were incubated with 10 μg/mL of lipopolysaccharide (LPS) to induce IL-6 and TNF-α release. Then, the supernatant was collected and IL-6 and TNF-α secretion was evaluated using standard ELISA kits.

The next data set has as its system IL-6. Type of data set: cell-based, Human. Particulars: Raji cells; LPS 10 μg/mL; 48 h; positive control. The protocol: as §1
Another data set concerns Raji cells. Nature of the data set: MTT cell viability assay. Type of data set: cell-based, Human. Particulars: for cytotoxicity of CPPs: 5, 10, 25 and 50 μM, 24, 48 and 72 h, 570 nm, mean of three independent experiments in duplicate. The protocol:
Human lymphoma cell line (Raji) was cultured in 75 cm^2 cell culture flasks containing RPMI 1640 medium (Gibco), which was supplemented with 10% FBS, 2 mM L-glutamine, 100 units/mL penicillin, and 100 µg/mL streptomycin ([29]). The cell culture was carried out in a humidified atmosphere of 5% CO2, 95% air, and 37 °C. The cell viability of CPPs and peptide-MTX conjugates was determined by MTT assay in Raji cells. […] […] The cell viability was determined by measuring the amount of MTT transformed to formazan salt using an ELISA reader at 570 nm (Bioteck Instruments, Winooski, VT, USA). The results were the means of three independent experiments performed in duplicate.
(Tetrazolium assays rely on reduction of a dye to a coloured formazan, in cell work by metabolically active cells.)

Data set [1] can be described thus: Zetasizer hydrodynamic size distribution and zeta potential. Type of data set: physicochemical. Particulars: Zetasizer Nano ZS, distilled water pH 7.4, 25 °C, repeated three times. The protocol: The size and morphology of NGRWR peptide and NGRWR-E8 nanoparticles (as representatives) were examined by scanning electron microscopy (SEM, Mira3 FEG-SEM Tescan 5.0 kV). Samples were prepared by drop-casting of a 5 mM aqueous solution (20 µL) onto the mica surface. Then, they were lyophilized, coated with gold, and analyzed with a […] of SEM. Zetasizer Nano ZS (Malvern Instruments, Worcestershire, UK) was employed to examine the mean hydrodynamic diameter, size distribution, and zeta potential of NGRWR peptide and NGRWR-E8 nanoparticles. To this end, the samples were diluted in distilled water (pH 7.4), and the experiment was repeated three times per sample at 25 °C.

For lipopolysaccharide [LPS], the “TNF-α level enhancement over the control group” value with TNF-α was found to be 100 times. The “IL-6 level enhancement over the control group” value in the data set on IL-6 was determined as 100 times.

Take “WRWRWRNGR [linear cell-penetrating peptide …]”: in the data set with Raji cells, the “cytotoxicity of CPPs” value was “no significant cytotoxicity”.

What is called cell viability is the share of living cells, or the viability signal relative to a control. Higher therefore signals better survival. As to “WRWRWRWR [[WR]4, linear cell-penetrating peptide WRWRWRWR]”, in the data set on Raji cells (5 μM peptide, 24 h), the cell viability worked out at 40%.

Consider WRNGRWR-MTX (WRNGRWR-{MTX}), for which the “cytotoxic effect of peptide-MTX conjugates” value in the data set on Raji cells (25 nM MTX, 48 h after treatment) is “no significant cytotoxic effect”.

Take “WKWKWKWK [[WK]4, linear cell-penetrating peptide WKWKWKWK]”: the “cytotoxicity of CPPs” value in the data set on Raji cells was “no significant cytotoxicity”.

Regarding “RRRRRR [R6, linear polyarginine peptide RRRRRR]”, the “cytotoxicity of CPPs” value in the data set on Raji cells is given as “no significant cytotoxicity”.

In the case of “WWWWKKKK [W4K4, linear cell-penetrating peptide WWWWKKKK]”, the “cytotoxicity of CPPs” value with Raji cells was “no significant cytotoxicity”.

As for “NGRWRWRWR [linear cell-penetrating peptide …]”, the “cytotoxicity of CPPs” value in the data set on Raji cells is “no significant cytotoxicity”. In data set [1], the “size distribution, population of 16% of particles” value was determined as 50 nm; the “size distribution, population of 20% of particles” value is reported as 37 nm; the “size distribution, population of 21% of particles” value is on record as 50-250 nm; the “size distribution, population of 43% of particles” value is recorded as 26 nm. Further, in data set [1], the zeta potential result was “+11 mV”.

As for “WRWNGRWRW [WRNGRWR, linear cell-penetrating peptide …]”, the “cytotoxicity of CPPs” value with Raji cells was “no significant cytotoxicity”.

For the substance “WWWWRRRR [W4R4, linear cell-penetrating peptide WWWWRRRR]”, the “cytotoxicity of CPPs” value in the data set with Raji cells was “no significant cytotoxicity”.
